The species entered for assay [1] is Homo sapiens. In words: Inhibition of aplyronine A-actin complex-tubulin (unknown origin) protein-protein interaction at 1 equivalent by SPR analysis.
Another assay has as its system HeLa S3. In words: Cytotoxicity against human HeLa S3 cells assessed as reduction in cell viability measured after 96 hrs by MTT assay. In kind it is functional, cell-based. The settings on record: HeLa S3, 96 h.
Assay [2] deals with Actin, alpha skeletal muscle (Oryctolagus cuniculus, UniProt P68135). In words: Induction of rabbit skeletal muscle actin depolymerization measured after 120 mins by fluorescence assay.
The species entered for assay [3] is Homo sapiens. In words: Binding affinity to actin (unknown origin) assessed as dissociation constant for actin-compound-tubulin heterodimer complex at 8 degreeC.
The species entered for assay [4] is Homo sapiens. Description: Binding affinity to actin (unknown origin) assessed as thermal stability of actin-compound-tubulin heterodimer complex at 25 degreeC.
A short description of assay [5]: Binding affinity to actin (unknown origin) assessed as dissociation constant for actin-compound-tubulin heterodimer complex at 25 degreeC. More on the design: species or system Homo sapiens.
Assay [6] is filed under the species Homo sapiens. Description: Binding affinity to actin (unknown origin) assessed as 1:1:1 ratio of actin-compound-tubulin heterodimer complex formation by measuring molecular weight in presence of 9:1 ratio of native/biotinylated tubulin by gel permeation HPLC analysis.
Assay [7] is filed under the species Homo sapiens. Description: Induction of microtubule (unknown origin) depolymerization pretreated with paclitaxel followed by compound treatment measured after 1 hr in presence of native and biotinylated tubulin and actin by ultracentrifugation.
Assay [8] in a line: Binding affinity to actin (unknown origin) assessed as off rate constant for actin-compound-tubulin heterodimer complex. Details: species or system Homo sapiens.
For assay [9], the species on record is Homo sapiens. Description: Induction of immobilized actin-tubulin (unknown origin) protein-protein interaction by SPR analysis.
The species entered for assay [10] is Homo sapiens. Description: Binding affinity to actin (unknown origin) assessed as 1:1:1 ratio of actin-compound-tubulin heterodimer complex formation by measuring peak time in presence of 9:1 ratio of native/biotinylated tubulin by gel permeation HPLC analysis.
Assay [11] is filed under the species Homo sapiens. In words: Binding affinity to actin (unknown origin) assessed as thermal stability of actin-compound-immobilized tubulin heterodimer complex.
The species named for assay [12] is Homo sapiens. Description: Binding affinity to actin (unknown origin) assessed as on rate constant for actin-compound-tubulin heterodimer complex.
Assay [13] is filed under the species Homo sapiens. In words: Binding affinity to streptavidin immobilized actin (unknown origin) assessed as on rate constant by SPR analysis.
Assay [14] in a line: Binding affinity to streptavidin immobilized actin (unknown origin) assessed as off rate constant by SPR analysis. Details: species or system Homo sapiens.
Assay [15] can be described thus: Binding affinity to streptavidin immobilized actin (unknown origin) assessed as dissociation constant by SPR analysis. More on the design: species or system Homo sapiens.
The species named for assay [16] is Homo sapiens. Description: Induction of aplyronine A-actin complex-tubulin (unknown origin) protein-protein interaction assessed as actin-aplyronine A-tubulin ternary complex formation by SPR analysis.
The species named for assay [17] is Homo sapiens. Description: Induction of aplyronine A-actin complex-tubulin (unknown origin) protein-protein interaction assessed as association of actin-aplyronine A-tubulin complex by SPR analysis.

The structures appear in SMILES notation. Activity calls are given as the source filed them. No cut-off for these calls is given here.

With `CO[C@H]1CC[C@@H](C)[C@@H](O)[C@H](C)[C@H](O)C/C=C/C=C/C(=O)O[C@H]([C@@H](C)[C@@H](O)[C@@H](C)CC[C@@H](OC(=O)C(C)N(C)C)[C@H](C)[C@H](OC(C)=O)[C@H](C)/C=C/N(C)C=O)C/C=C/[C@H](OC)C[C@H](C)C/C=C/1C` (some centres not stated) [APLYRONINE C], in the assay listed under Homo sapiens [1], the inhibition was found to be 100%. The IC50 in the assay on HeLa S3 stood at 17 nM.
`COCC(C(=O)O[C@@H]1C/C=C/C=C/C(=O)O[C@H]([C@@H](C)[C@@H](O)[C@@H](C)CC[C@@H](OC(=O)C(C)N(C)C)[C@H](C)[C@H](OC(C)=O)[C@H](C)/C=C/N(C)C=O)C/C=C/[C@H](OC)C[C@H](C)C/C=C(\C)[C@@H](OC)CC[C@@H](C)[C@@H](O)[C@@H]1C)N(C)C` (some centres not stated) [APLYRONINE A]: in the assay filed under Homo sapiens [1], the inhibition came to 100%. Moreover, the Kd in assay [2] was 100 nM; in [5], 1840 nM; in assay [8], 8.82 10^-2/s. The Ka was 3 10^6/M in the assay filed under Homo sapiens [3] and 4.78 10^4/M/s in the assay filed under Homo sapiens [12]. Besides, the outcome in the assay filed under Homo sapiens [4], in the assay listed under Homo sapiens [9] and in the assay listed under Homo sapiens [11] was inactive. In the assay listed under Homo sapiens [6], the Activity worked out at 145 kDa. The result in the assay filed under Homo sapiens [7] was Active. Also, the IC50 in the assay with HeLa S3 was determined as 0.01 nM. The TIME in the assay filed under Homo sapiens [10] is 0.265 h.
With `COCC(C(=O)O[C@@H]1C/C=C/C=C/C(=O)O[C@H]([C@@H](C)[C@@H](O)[C@@H](C)CC[C@@H](OC(=O)C(C)N(C)C)[C@H](C)[C@H](OC(C)=O)[C@H](C)C/C=N/NC(=O)CCOCCOCCOCCOCCNC(=O)CCCC[C@@H]2SC[C@@H]3NC(=O)N[C@@H]32)C/C=C/[C@H](OC)C[C@H](C)C/C=C(\C)[C@@H](OC)CC[C@@H](C)[C@@H](O)[C@@H]1C)N(C)C` (some centres not stated), in the assay filed under Homo sapiens [13], the Ka was 4.54 10^3/M/s. Further, the Kd was 1.83 10^-2/s in assay [14] and 4020 nM in [15]. Moreover, the IC50 with HeLa S3 amounted to 0.096 nM.
Regarding `COC[C@@H](OC)C(=O)O[C@H](CC[C@H](C)[C@H](C[C@@H]1OC(=O)C[C@@H](O)C/C=C/C(=O)[C@H](C)[C@H](OC)c2coc(n2)-c2coc(n2)-c2coc(n2)/C=C/C[C@H](OC)[C@H]1C)OC)[C@H](C)[C@H](OC(C)=O)[C@H](C)/C=C/N(C)C=O`, in the assay filed under Homo sapiens [1], the inhibition was 100%. The same molecule came in with a Kd in [2] of 13 nM.
On to `C/C1=C/C(=O)O[C@@H]2C[C@@H](CC[C@H](C)/C=C\C=C\CC1)O[C@@](O)([C@@H]1CSC(=O)N1)C2`, for which the result in the assay filed under Homo sapiens [16] and in the assay listed under Homo sapiens [17] was Active.
As for `CO[C@H]1CC[C@@H](C)[C@@H](O)[C@H](C)[C@H](O)C/C=C/C=C/C(=O)O[C@H]([C@@H](C)[C@@H](O)[C@@H](C)CC[C@@H](OC(=O)C(C)N(C)C)[C@H](C)[C@H](OC(C)=O)[C@H](C)C/C=N/NC(=O)CCOCCOCCOCCOCCNC(=O)CCCC[C@@H]2SC[C@@H]3NC(=O)N[C@@H]32)C/C=C/[C@H](OC)C[C@H](C)C/C=C/1C` (some centres not stated), in the assay listed under Homo sapiens [13], the Ka was 8.38 10^2/M/s. Also, the Kd was 1.51 10^-2/s in [14] and 18000 nM in assay [15]. Moreover, the IC50 in the assay with HeLa S3 is 700 nM.

These data come from ChEMBL document CHEMBL4715717, “Analysis of the aplyronine A-induced protein-protein interaction between actin and tubulin by surface plasmon resonance” (Bioorg Med Chem, 2016).
